pIC50: −log10 of the molar value. Read-outs that look alike come from different tables or passages of the source.
Key:
[1] = target: panel of more than 300 wild-type and mutant kinases (313 kinase panel) (Homo sapiens, UniProt P07947, T348I); test: Kinase profiling in a biochemical assay panel (mobility shift assays and ELISA), %-inhibition at 1 μM; selectivity entropy
[2] = target: T1, panel of more than 300 wild-type and mutant kinases (313 kinase panel) (Homo sapiens, UniProt Q16832); test: as above; conditions: kinase DDR2; compound at 1 μM
T1 sequence (Q16832 22-855): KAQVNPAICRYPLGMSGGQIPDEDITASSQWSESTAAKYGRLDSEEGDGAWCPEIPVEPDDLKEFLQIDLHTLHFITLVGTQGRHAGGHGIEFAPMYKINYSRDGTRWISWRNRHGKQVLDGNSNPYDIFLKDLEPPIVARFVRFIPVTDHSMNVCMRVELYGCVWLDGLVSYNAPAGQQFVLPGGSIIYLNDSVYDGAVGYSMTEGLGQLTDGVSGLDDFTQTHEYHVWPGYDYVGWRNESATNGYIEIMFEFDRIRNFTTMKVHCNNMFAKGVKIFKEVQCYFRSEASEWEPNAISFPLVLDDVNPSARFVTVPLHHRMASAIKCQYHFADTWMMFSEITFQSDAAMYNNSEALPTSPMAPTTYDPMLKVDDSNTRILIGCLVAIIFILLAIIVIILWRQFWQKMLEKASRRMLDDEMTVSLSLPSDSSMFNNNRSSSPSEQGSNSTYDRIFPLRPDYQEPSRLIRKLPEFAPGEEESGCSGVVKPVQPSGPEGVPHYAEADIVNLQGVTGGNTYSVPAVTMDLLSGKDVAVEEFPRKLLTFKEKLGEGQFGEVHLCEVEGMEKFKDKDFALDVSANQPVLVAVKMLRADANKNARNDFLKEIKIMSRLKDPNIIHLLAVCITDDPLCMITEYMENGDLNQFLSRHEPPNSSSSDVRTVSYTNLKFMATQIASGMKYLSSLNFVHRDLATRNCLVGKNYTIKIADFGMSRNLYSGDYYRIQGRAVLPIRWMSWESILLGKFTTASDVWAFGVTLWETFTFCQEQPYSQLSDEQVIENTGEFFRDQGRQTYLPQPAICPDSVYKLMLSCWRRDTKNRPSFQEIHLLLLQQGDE

[3] = target: T2, panel of more than 300 wild-type and mutant kinases (313 kinase panel) (Homo sapiens, UniProt P51955); test: as above; conditions: kinase NEK2; 1 μM
T2 sequence (P51955 1-445): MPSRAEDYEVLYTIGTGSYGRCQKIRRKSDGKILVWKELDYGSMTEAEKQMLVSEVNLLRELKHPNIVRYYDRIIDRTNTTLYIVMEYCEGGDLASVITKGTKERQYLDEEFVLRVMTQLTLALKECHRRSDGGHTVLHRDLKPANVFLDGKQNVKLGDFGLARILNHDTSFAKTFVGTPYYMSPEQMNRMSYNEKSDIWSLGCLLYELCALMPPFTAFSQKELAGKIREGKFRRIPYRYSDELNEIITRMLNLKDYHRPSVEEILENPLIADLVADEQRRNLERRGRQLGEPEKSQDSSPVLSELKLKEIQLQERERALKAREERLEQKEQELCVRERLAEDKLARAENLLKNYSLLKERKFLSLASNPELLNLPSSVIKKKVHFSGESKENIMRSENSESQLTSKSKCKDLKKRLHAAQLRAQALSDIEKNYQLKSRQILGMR

[4] = target: panel of more than 300 wild-type and mutant kinases (313 kinase panel) (Homo sapiens, UniProt P09619); test: as above; conditions: kinase PDGFRβ; 1 μM
[5] = target: panel of more than 300 wild-type and mutant kinases (313 kinase panel) (Homo sapiens, UniProt Q8TDX7); test: as above; conditions: kinase NEK7; 1 μM
[6] = target: panel of more than 300 wild-type and mutant kinases (313 kinase panel) (Homo sapiens, UniProt P15056, V600E); test: as above; conditions: kinase BRAF(V600E); 1 μM compound
Chain of panel of more than 300 wild-type and mutant kinases (313 kinase panel) (Homo sapiens, UniProt P15056, V600E) (P15056 whole entry V600E): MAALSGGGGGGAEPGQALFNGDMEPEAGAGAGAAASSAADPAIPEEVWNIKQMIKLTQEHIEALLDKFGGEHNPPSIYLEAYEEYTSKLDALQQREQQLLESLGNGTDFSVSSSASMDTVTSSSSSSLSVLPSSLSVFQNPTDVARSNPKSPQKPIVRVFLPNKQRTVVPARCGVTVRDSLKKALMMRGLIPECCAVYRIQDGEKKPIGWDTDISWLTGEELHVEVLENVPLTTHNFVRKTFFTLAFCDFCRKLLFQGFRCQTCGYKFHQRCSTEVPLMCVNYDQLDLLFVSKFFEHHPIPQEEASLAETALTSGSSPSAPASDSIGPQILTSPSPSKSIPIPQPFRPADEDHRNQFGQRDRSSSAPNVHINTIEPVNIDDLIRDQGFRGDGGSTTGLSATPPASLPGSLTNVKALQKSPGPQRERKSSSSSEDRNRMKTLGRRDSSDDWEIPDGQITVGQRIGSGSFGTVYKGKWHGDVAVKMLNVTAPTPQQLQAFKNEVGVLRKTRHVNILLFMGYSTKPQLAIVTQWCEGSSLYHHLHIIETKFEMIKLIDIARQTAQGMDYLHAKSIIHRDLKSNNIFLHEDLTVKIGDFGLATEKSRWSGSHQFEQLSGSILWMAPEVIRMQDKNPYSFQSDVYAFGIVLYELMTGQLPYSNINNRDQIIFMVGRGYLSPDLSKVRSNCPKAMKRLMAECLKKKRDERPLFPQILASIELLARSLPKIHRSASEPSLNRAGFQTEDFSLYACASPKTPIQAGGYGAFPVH

[7] = target: panel of more than 300 wild-type and mutant kinases (313 kinase panel) (Homo sapiens, UniProt P15056); test: as above; conditions: kinase BRAF; 1 μM compound
Chain of panel of more than 300 wild-type and mutant kinases (313 kinase panel) (Homo sapiens, UniProt P15056) (P15056 whole entry, change not shown): as the sequence (P15056 whole entry V600E) above, with E600V counted along it

[8] = tested on: forty-four human cancer cell lines; test: Cell proliferation assay (ATPlite, 72 hours) in the 44 cell line Oncolines panel; format: cell-based; conditions: Homo sapiens
[9] = target: panel of more than 300 wild-type and mutant kinases (313 kinase panel) (Homo sapiens, UniProt P22612); test: Kinase profiling in a biochemical assay panel (mobility shift assays and ELISA), %-inhibition at 1 μM; selectivity entropy; conditions: kinase PKACγ; 1 μM
[10] = 4-4 cell, read-out: cell panel IC50, J82
[11] = 4-4 cell, read-out: cell panel IC50, PA-1
[12] = 4-4 cell, read-out: cell panel IC50, SJCRH30
[13] = 4-4 cell, read-out: cell panel IC50, SR
[14] = 769-P, read-out: cell panel IC50, 769-P
[15] = 786-0, read-out: cell panel IC50, 786-0
[16] = A 172, read-out: cell panel IC50, A-172
[17] = A204, read-out: cell panel IC50, A-204
[18] = A498, read-out: cell panel IC50, A-498
[19] = A549, read-out: cell panel IC50, A-549
[20] = A-375, read-out: cell panel IC50, A375
[21] = A-427, read-out: cell panel IC50, A-427
[22] = ACHN, read-out: cell panel IC50, ACHN
[23] = AN3-CA, read-out: cell panel IC50, AN3 CA
[24] = AU565, read-out: cell panel IC50, AU-565
[25] = BT-20, read-out: cell panel IC50, BT-20
[26] = BT-549, read-out: cell panel IC50, BT-549
[27] = BXPC-3, read-out: cell panel IC50, BxPC-3
[28] = C-33-A, read-out: cell panel IC50, C-33 A
[29] = CAL-27, read-out: cell panel IC50, CAL 27
[30] = CCRF-CEM, read-out: cell panel IC50, CCRF-CEM
[31] = DLD-1, read-out: cell panel IC50, DLD-1
[32] = FaDu, read-out: cell panel IC50, FaDu
[33] = HCT-15, read-out: cell panel IC50, HCT-15
[34] = HCT-116, read-out: cell panel IC50, HCT-116
[35] = Hs-578T, read-out: cell panel IC50, Hs 578T
[36] = Jurkat E6.1, read-out: cell panel IC50, Jurkat E6.1
[37] = K562, read-out: cell panel IC50, K-562
[38] = LS174T, read-out: cell panel IC50, LS 174T
[39] = LoVo, read-out: cell panel IC50, LoVo
[40] = MG-63, read-out: cell panel IC50, MG-63
[41] = MOLT-4, read-out: cell panel IC50, MOLT-4
[42] = MeWo, read-out: cell panel IC50, MeWo
[43] = NCI-H82, read-out: cell panel IC50, NCI-H82
[44] = NCI-H460, read-out: cell panel IC50, NCI-H460
[45] = OVCAR-3, read-out: cell panel IC50, OVCAR-3
[46] = RPMI-7951, read-out: cell panel IC50, RPMI-7951
[47] = SHP77, read-out: cell panel IC50, SHP-77
[48] = SK-N-AS, read-out: cell panel IC50, SK-N-AS
[49] = SW48, read-out: cell panel IC50, SW48
[50] = SW480, read-out: cell panel IC50, SW480
[51] = SW-620, read-out: cell panel IC50, SW620
[52] = U2OS, read-out: cell panel IC50, U-2 OS
[53] = U-87 MG, 72 h, read-out: IC50 in cell proliferation assay (table S5 cellpanel data)

Chain of panel of more than 300 wild-type and mutant kinases (313 kinase panel) (Homo sapiens, UniProt P07947, T348I) (P07947 whole entry T348I): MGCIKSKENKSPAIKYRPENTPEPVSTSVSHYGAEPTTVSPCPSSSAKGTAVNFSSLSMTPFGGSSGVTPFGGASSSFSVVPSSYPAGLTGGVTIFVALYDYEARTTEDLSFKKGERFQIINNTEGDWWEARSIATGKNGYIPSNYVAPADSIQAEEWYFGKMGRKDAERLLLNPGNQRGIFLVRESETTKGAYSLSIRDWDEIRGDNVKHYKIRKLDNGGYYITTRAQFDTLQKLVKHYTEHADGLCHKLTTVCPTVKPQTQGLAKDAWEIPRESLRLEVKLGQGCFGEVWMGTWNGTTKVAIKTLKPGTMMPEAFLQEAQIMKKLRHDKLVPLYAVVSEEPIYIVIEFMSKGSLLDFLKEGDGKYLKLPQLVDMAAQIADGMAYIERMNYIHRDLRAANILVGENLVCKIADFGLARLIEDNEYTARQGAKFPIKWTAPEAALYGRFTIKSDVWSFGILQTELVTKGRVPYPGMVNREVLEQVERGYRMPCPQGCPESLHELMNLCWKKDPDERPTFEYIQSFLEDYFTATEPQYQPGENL

SMILES: O=S(=O)(c1cccc2cnccc12)N1CCCNCC1 [fasudil]
- %-inhibition of YES(T348I) ([1]; kinase YES(T348I), compound at 1 μM): 6%
- %-inhibition of DDR2 [2]: 0.102%
- %-inhibition of NEK2 [3]: -1%
- %-inhibition of PDGFRβ [4]: 12%
- %-inhibition of NEK7 [5]: -1.52%
- %-inhibition, BRAF(V600E) [6]: 3.36%
- %-inhibition, BRAF [7]: -3.28%
- pIC50 [8, 10]: < 4.50
- pIC50 [8, 11]: < 4.50
- pIC50 [8, 12]: < 4.50
- pIC50 [8, 13]: 4.84
- pIC50 [8, 14]: < 4.50
- pIC50 [8, 15]: < 4.50
- pIC50 [8, 16]: < 4.50
- pIC50 [8, 17]: < 4.50
- pIC50 [8, 18]: < 4.50
- pIC50 [8, 19]: < 4.50
- pIC50 [8, 20]: 4.71
- pIC50 [8, 21]: < 4.50
- pIC50 [8, 22]: < 4.50
- pIC50 [8, 23]: 4.53
- pIC50 [8, 24]: < 4.50
- pIC50 [8, 25]: < 4.50
- pIC50 [8, 26]: < 4.50
- pIC50 [8, 27]: < 4.50
- pIC50 [8, 28]: < 4.50
- pIC50 [8, 29]: < 4.50
- pIC50 [8, 30]: < 4.50
- pIC50 [8, 31]: < 4.50
- pIC50 [8, 32]: < 4.50
- pIC50 [8, 33]: < 4.50
- pIC50 [8, 34]: < 4.50
- pIC50 [8, 35]: < 4.50
- pIC50 [8, 36]: < 4.50
- pIC50 [8, 37]: < 4.50
- pIC50 [8, 38]: < 4.50
- pIC50 [8, 39]: < 4.50
- pIC50 [8, 40]: < 4.50
- pIC50 [8, 41]: < 4.50
- pIC50 [8, 42]: < 4.50
- pIC50 [8, 43]: < 4.50
- pIC50 [8, 44]: < 4.50
- pIC50 [8, 45]: < 4.50
- pIC50 [8, 46]: < 4.50
- pIC50 [8, 47]: < 4.50
- pIC50 [8, 48]: < 4.50
- pIC50 [8, 49]: < 4.50
- pIC50 [8, 50]: < 4.50
- pIC50 [8, 51]: < 4.50
- pIC50 [8, 52]: < 4.50
- pIC50 [8, 53]: < 4.50

SMILES: N#CC[C@H](C1CCCC1)n1cc(-c2ncnc3[nH]ccc23)cn1 [ruxolitinib]
- %-inhibition of YES(T348I) ([1]; 1 µM): 5%
- %-inhibition of DDR2 [2]: 49%
- %-inhibition of NEK2 [3]: -4%
- %-inhibition of PKACγ [9]: 11%
- %-inhibition of NEK7 [5]: -1.81%
- %-inhibition, BRAF(V600E) [6]: 6%
- %-inhibition, BRAF [7]: 14%
- pIC50 [8, 10]: < 4.50
- pIC50 [8, 11]: 4.57
- pIC50 [8, 12]: 4.59
- pIC50 [8, 13]: 5.35
- pIC50 [8, 14]: 4.74
- pIC50 [8, 15]: < 4.50
- pIC50 [8, 16]: 4.50
- pIC50 [8, 17]: < 4.50
- pIC50 [8, 18]: < 4.50
- pIC50 [8, 19]: 4.66
- pIC50 [8, 20]: < 4.50
- pIC50 [8, 21]: 4.93
- pIC50 [8, 22]: < 4.50
- pIC50 [8, 23]: 5.01
- pIC50 [8, 24]: 4.55
- pIC50 [8, 25]: < 4.50
- pIC50 [8, 26]: < 4.50
- pIC50 [8, 27]: 4.79
- pIC50 [8, 28]: 5.03
- pIC50 [8, 29]: < 4.50
- pIC50 [8, 30]: 4.54
- pIC50 [8, 31]: 4.51
- pIC50 [8, 32]: < 4.50
- pIC50 [8, 33]: 4.60
- pIC50 [8, 34]: 4.52
- pIC50 [8, 35]: < 4.50
- pIC50 [8, 36]: 4.67
- pIC50 [8, 37]: 4.58
- pIC50 [8, 38]: 4.51
- pIC50 [8, 39]: 4.61
- pIC50 [8, 40]: 4.58
- pIC50 [8, 41]: 4.66
- pIC50 [8, 42]: < 4.50
- pIC50 [8, 43]: 4.68
- pIC50 [8, 44]: 4.57
- pIC50 [8, 45]: < 4.50
- pIC50 [8, 46]: 4.81
- pIC50 [8, 47]: 4.51
- pIC50 [8, 48]: 4.68
- pIC50 [8, 49]: 4.71
- pIC50 [8, 50]: < 4.50
- pIC50 [8, 51]: 4.55
- pIC50 [8, 52]: 4.60
- pIC50 [8, 53]: < 4.50

Source: article PMC3961306, “Comparison of the Cancer Gene Targeting and Biochemical Selectivities of All Targeted Kinase Inhibitors Approved for Clinical Use” (PLoS ONE, 2014)
